Seven molecules from article PMC9234671, “Molecular determinants of αVβ5 localization in flat clathrin lattices – role of αVβ5 in cell adhesion and proliferation” (Journal of Cell Science, 2022) can be followed below.

Experiment [1] has as its target T1, talin-1 head domain (THD1) (Homo sapiens, UniProt Q9Y490).
T1 construct: pCoofy17-THD1 (1-405) constructs were transformed into Rosetta2(DE3) cells; His-SUMO (N, cleaved yes); made in house; host or cells: E. coli Rosetta2(DE3)
As to the kind of experiment: Microscale thermophoresis (MST), talin-1 head domain. It counts as binding. The note with it: Atto488-labeled β5 cytoplasmic tail 50–200 nM, 20 mM Tris-HCl pH 7.5, 200 mM NaCl, 1 mM TCEP, 0.05% Tween-20, mean±s.d., n≥5. The text has this: Fig. 2. Adaptor protein binding to integrin β subunits. (A) Colocalization of integrin chimeras fused to the promiscuous biotin ligase BirA* (green in merge) with vinculin (red; left panels) or clathrin (red; right panels) in PA-JEB/β4 keratinocytes. Actin is shown in blue. Nuclei are stained with DAPI (cyan). Scale bars: 20 μm. (B) Representative western blots of BioID assays performed using the integrin chimeras shown in A. Quantifications of ARH, Numb and talin signal intensities normalized to streptavidin-HRP levels are shown (n=3; bars show mean±s.d.). (C) Representative western blots of pulldown assays (from two repeats) using synthetic integrin β cytoplasmic domains in RAC-11P cell lysates. […]
pCoofy17-THD1 (1-405) constructs were transformed into Rosetta2(DE3) cells and his-SUMO-THD1 proteins were expressed for 16 h at 20°C after induction with 0.4 mm IPTG. Cells were harvested and resuspended in 25 mM Tris-HCl pH 8.0, 10 mM imidazole, 200 mM NaCl, 1 mM TCEP and 5 μg ml^−1 DNase, and lysed by sonication. […]
All MST measurements were performed on a Monolith NT.115 red-blue (Nanotemper, Munich, Germany) using premium-coated capillaries to reduce non-specific interaction of the proteins with the glass surface. […] Data was analyzed using the MO Affinity Analysis Software (Nanotemper). […]

The next experiment concerns the target T2, Numb-PTB (20-175) (Homo sapiens, UniProt P49757).
T2 construct: A pETNKI-6xhis-3C-Numb-PTB (20-175) construct was expressed in Rosetta2 (DE3) cells; 6xHis-3C (N, cleaved yes); made in house; host or cells: E. coli Rosetta2 (DE3)
T2 sequence (P49757 20-175): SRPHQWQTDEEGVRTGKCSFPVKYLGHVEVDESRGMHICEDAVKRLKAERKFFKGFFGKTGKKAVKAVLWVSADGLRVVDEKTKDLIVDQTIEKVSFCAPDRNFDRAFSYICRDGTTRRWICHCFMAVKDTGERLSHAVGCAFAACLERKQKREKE
As to the kind of experiment: Microscale thermophoresis (MST), Numb. It counts as binding. From the text: (§1) Fig. 2. Adaptor protein binding to integrin β subunits. (A) Colocalization of integrin chimeras fused to the promiscuous biotin ligase BirA* (green in merge) with vinculin (red; left panels) or clathrin (red; right panels) in PA-JEB/β4 keratinocytes. Actin is shown in blue. Nuclei are stained with DAPI (cyan). Scale bars: 20 μm. (B) Representative western blots of BioID assays performed using the integrin chimeras shown in A. Quantifications of ARH, Numb and talin signal intensities normalized to streptavidin-HRP levels are shown (n=3; bars show mean±s.d.). (C) Representative western blots of pulldown assays (from two repeats) using synthetic integrin β cytoplasmic domains in RAC-11P cell lysates.
A pETNKI-6xhis-3C-Numb-PTB (20-175) construct was expressed in Rosetta2 (DE3) cells for 18 h at 20°C. Cells were lysed (25 mM Tris-HCl pH 8.0, 10 mM imidazole, 200 mM NaCl, 1 mM TCEP, 5 μg/ml DNase) and sonicated, after which insoluble proteins and cell debris were removed by centrifugation (21,000 g for 30 min at 4°C). Soluble lysate was applied to a nickel Sepharose column and beads were washed with wash buffer (lysis buffer without DNase) before protein was eluted in wash buffer supplemented with 250 mM imidazole. The 6xhis tag was cleaved off by his-3C protease during dialysis against 25 mM Tris-HCl pH 8.0, 100 mM NaCl, 1 mM TCEP, 16 h at 4°C. Elution fractions were pooled, diluted with six volumes of 20 mM HEPES pH 7.5, 1 mM TCEP and applied to a 1 ml Resource S cation-exchange column (Cytiva). Protein was eluted in a NaCl gradient (50–700 mM) in 25 mM HEPES (pH 7.5). 6xhis-Numb-PTB was concentrated and further purified by size-exclusion chromatography (SEC70 column, Bio-Rad) in 25 mM Tris-HCl pH 8.0, 200 mM NaCl and 1 mM TCEP.
All MST measurements were performed on a Monolith NT.115 red-blue (Nanotemper, Munich, Germany) using premium-coated capillaries to reduce non-specific interaction of the proteins with the glass surface. […] Data was analyzed using the MO Affinity Analysis Software (Nanotemper).

The target in another experiment is T3, full-length human ARH (Homo sapiens, UniProt Q5SW96).
T3 construct: The full-length human ARH gene was cloned into the pETNKI-6xhis-3C-LIC vector; made in house; host or cells: E. coli BL21(DE3)
T3 sequence (Q5SW96 1-308): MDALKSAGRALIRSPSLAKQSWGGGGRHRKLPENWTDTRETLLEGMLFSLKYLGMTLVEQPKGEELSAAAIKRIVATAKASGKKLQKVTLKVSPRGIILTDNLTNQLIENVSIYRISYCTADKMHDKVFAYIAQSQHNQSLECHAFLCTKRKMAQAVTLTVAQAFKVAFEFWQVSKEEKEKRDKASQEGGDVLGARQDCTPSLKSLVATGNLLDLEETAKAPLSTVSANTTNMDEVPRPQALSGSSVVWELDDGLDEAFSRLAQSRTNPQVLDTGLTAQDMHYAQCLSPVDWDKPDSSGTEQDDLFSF
Kind of experiment: Microscale thermophoresis (MST), ARH. It counts as binding.
Source text: as §1
The full-length human ARH gene was cloned into the pETNKI-6xhis-3C-LIC vector ([Luna-Vargas et al., 2011]) and 6xhis–ARH protein was produced in Bl21(DE3) E. coli cells. Cells were grown at 37°C until an optical density at 600 nm (OD600) of 0.6 was reached. Temperature was reduced to 30°C and protein was expressed upon induction with 0.4 mM IPTG for 3.5 h. Cells were harvested and resuspended in lysis buffer (20 mM HEPES, pH 7.5, 200 mM NaCl, 1 mM TCEP and 5 μg ml^−1 DNase). After sonication, cell debris and insoluble proteins were removed by centrifugation (21,000 g for 30 min). 6xhis–ARH was purified from the soluble fraction using nickel Sepharose beads and eluted in 20 mM HEPES, pH 7.5, 200 mM NaCl, 1 mM TCEP and 250 mM imidazole. Fractions containing 6xhi–ARH were further purified on a SEC650 size exclusion column (Bio-Rad), equilibrated with 20 mM HEPES, pH 7.5, 100 mM NaCl and 1 mM TCEP.
All MST measurements were performed on a Monolith NT.115 red-blue (Nanotemper, Munich, Germany) using premium-coated capillaries to reduce non-specific interaction of the proteins with the glass surface. Both interaction partners (ligand and receptor) were transferred into MST buffer (20 mM Tris-HCl pH 7.5, 200 mM sodium chloride, 1 mM TCEP and 0.05% Tween-20) to avoid artifacts derived from buffer mismatches. […] Data was analyzed using the MO Affinity Analysis Software (Nanotemper).

The subject of another experiment is Numb. Kind of experiment: Peptide pulldown, Numb. It counts as binding. The note with it: desthiobiotin tail peptide on streptavidin beads, RAC-11P lysate, 4°C, 4 h; western blot; two repeats. On the procedure: (§2) Peptide pulldowns were carried out as previously described ([Böttcher et al., 2012]) with the mouse β1 wild-type cytoplasmic tail peptide ([…]-OH) and a scrambled peptide ([…]-OH), mouse β3 wild-type tail peptide ([…]-OH), mouse β5 wild-type tail peptide ([…]-OH), β5 Δ8aa tail peptide ([…]-OH) and scrambled peptide […].
(§3) The tail peptides were synthesized de novo with a desthiobiotin on the N-terminus, coupled to Dynabeads MyOne streptavidin C1 (10 mgml^−1, Invitrogen) and incubated with RAC-11P cell lysates (prepared with M-PER reagent, Thermo Fisher Scientific) at 4°C with rotation for 4 h. After three washes with wash buffer (M-PER diluted 1:1 with PBS), bound proteins were eluted in 2× Laemmli buffer at 95°C for 5 min and separated on an 8% SDS-PAGE gel.

The subject of the next experiment is SNX17. Kind of experiment: Peptide pulldown, SNX17. The format is binding. The conditions noted are these: desthiobiotin tail peptide on streptavidin beads, RAC-11P lysate, 4°C, 4 h; western blot; two repeats. On the procedure: as §2, §3
Experiment [2] relates to cytoskeletal or clathrin adaptor proteins. As to the kind of experiment: Peptide pulldown, cytoskeletal or clathrin adaptor proteins. It counts as binding. The note with it: desthiobiotin tail peptide on streptavidin beads, RAC-11P lysate, 4°C, 4 h; western blot; two repeats. On the procedure:
as §2, §3

The test system of a further experiment is ARH. Kind of experiment: Peptide pulldown, ARH. The format is binding. The conditions noted are these: desthiobiotin tail peptide on streptavidin beads, RAC-11P lysate, 4°C, 4 h; western blot; two repeats. The method, then:
as §2, §3

In experiment [3] the target is Atto488-labeled integrin β5 cytoplasmic tail. As to the kind of experiment: MST; 50–200 nM Atto488-labeled integrin-β cytoplasmic tail as ligand; 20 mM Tris-HCl pH 7.5, 200 mM sodium chloride, 1 mM TCEP, 0.05% Tween-20; Monolith NT.115.
Setting [4] is: MST, Atto488-labeled β5 cytoplasmic tail 50–200 nM, 20 mM Tris-HCl pH 7.5, 200 mM NaCl, 1 mM TCEP, 0.05% Tween-20, mean±s.d., n≥5.
Setting [5] is: concentration range tested up to 75 µM for β3.

“Also recorded” adds a separate entry of the source. Ends that are not written are not given here.

T1 sequence (Q9Y490 1-405): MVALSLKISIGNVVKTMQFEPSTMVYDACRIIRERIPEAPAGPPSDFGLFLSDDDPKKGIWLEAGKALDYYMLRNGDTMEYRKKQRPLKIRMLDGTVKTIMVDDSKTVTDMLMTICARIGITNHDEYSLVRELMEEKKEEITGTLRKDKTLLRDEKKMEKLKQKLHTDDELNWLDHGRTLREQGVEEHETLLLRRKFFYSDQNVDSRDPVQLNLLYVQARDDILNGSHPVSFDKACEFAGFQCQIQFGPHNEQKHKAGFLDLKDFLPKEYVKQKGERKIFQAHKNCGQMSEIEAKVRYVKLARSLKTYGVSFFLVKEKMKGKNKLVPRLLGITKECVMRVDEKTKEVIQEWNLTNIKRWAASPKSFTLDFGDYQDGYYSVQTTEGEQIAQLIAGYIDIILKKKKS

Turning to “DRREFAKFQSERSRARYEMASNPLYRKPISTHTVDFAFNKFNKSYNGSVD [β5]”, the Kd in experiment [1] came to 41.7 ± 9.5 µM; at Numb-PTB (20-175) (setting [4]), 28.5 ± 7.7 µM; at full-length human ARH (setting [4]), 5.6 ± 1.4 µM.
For the molecule “DRREFAKFQSERSRARYEMASNPLYRKPISTVVNKSYNGSVD-OH [β5 Δ8 aa, β5 tail peptide carrying a deletion of 8 amino acids between the NPxY and NxxY motifs]”, the “interaction with Numb in pulldown” value in the experiment with Numb was “binds considerably more”. Also, the “interaction with SNX17 in pulldown” value with SNX17 is “abrogated”. Also, the “binding of cytoskeletal or clathrin adaptor proteins in pulldown” value in experiment [2] was “prevented neither the clustering of β5 in FCLs ([Zuidema et al., 2018]) nor the binding of cytoskeletal or clathrin adaptor proteins to the β5 tail”.
Turning to “EYEFEPDKVDTGAKGTKMAKNEKKFRNYTVHNIWESRKVAP-OH [β1 scrambled peptide, scrambled β1 tail peptide, control, reference compound]”, the “interaction with Numb in pulldown” value in the experiment with Numb is “some background binding”. Moreover, the “interaction with ARH in pulldown” value with ARH is given as “hardly”.
Turning to “HDRKEFAKFEEERARAKWDTANNPLYKEATSTFTNITYRGT-OH [β3, synthetic integrin β3 cytoplasmic tail peptide]”, the “interaction with Numb in pulldown” value with Numb was “not β1 and β3, bind to Numb and ARH”. For the same molecule, the “interaction with SNX17 in pulldown” value in the experiment with SNX17 is reported as “interacted strongly”. Also, the “interaction with ARH in pulldown” value in the experiment with ARH was “not β1 and β3, bind to Numb and ARH”. Further, the “binding to Numb by MST (β3)” value on Numb-PTB (20-175) (setting [5]) is given as “no binding; also recorded: unable to detect binding”. Besides, the “binding to ARH by MST (β3)” value on full-length human ARH (setting [5]) is “no binding; also recorded: unable to detect binding”.
The molecule “talin-1 head domain (THD1) (from UniProt P26039 1-405) (domain or fragment)” displayed a Kd in experiment [3] of 41.7 µM.

B1: 6xhis–ARH (natural protein)
chain: T3 sequence (Q5SW96 1-308)
B1 had a Kd in experiment [3] of 5.6 µM.

B2: Numb-PTB (20-175) (domain or fragment)
chain: T2 sequence (P49757 20-175)
In turn, B2 yielded a Kd in experiment [3] of 28.5 µM.
